Here are results for 13 compounds from patent US8106215B2, “3-aza-bicyclo[3.3.0]octane compounds” (Actelion Pharmaceuticals Ltd., priority 2007, dated 2012).

Structures are written as SMILES.

As a reminder, the IC50 is the concentration at which inhibition is half-maximal.

The target in one test is T1, human orexin-1 receptor (Homo sapiens, UniProt O43613).
T1 construct: expressed in transfected cells; host or cells: CHO cells (G418 selection)
T1 sequence (O43613 1-425): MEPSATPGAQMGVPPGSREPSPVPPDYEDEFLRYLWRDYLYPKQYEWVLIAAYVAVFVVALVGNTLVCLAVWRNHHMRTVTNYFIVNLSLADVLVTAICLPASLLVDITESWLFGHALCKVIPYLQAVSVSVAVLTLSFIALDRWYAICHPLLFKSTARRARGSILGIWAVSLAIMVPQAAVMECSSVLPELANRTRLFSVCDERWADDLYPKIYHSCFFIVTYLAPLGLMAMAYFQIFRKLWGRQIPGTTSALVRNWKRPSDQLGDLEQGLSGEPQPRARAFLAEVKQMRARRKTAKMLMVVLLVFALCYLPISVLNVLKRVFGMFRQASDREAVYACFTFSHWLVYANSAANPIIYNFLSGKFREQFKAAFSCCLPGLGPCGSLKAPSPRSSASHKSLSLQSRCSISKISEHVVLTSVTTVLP
The test can be described thus: Intracellular calcium measurements (FLIPR), orexin receptor antagonistic activity, OX1. The note with it: CHO cells expressing human orexin-1 receptor, 3 nM orexin-A. It is filed as cell-based. The method, then:
(§1) The orexin receptor antagonistic activity of the compounds of formula (I) is determined in accordance with the following experimental method.
(§2) Intracellular Calcium Measurements:
(§3) Chinese hamster ovary (CHO) cells expressing the human orexin-1 receptor and the human orexin-2 receptor, respectively, are grown in culture medium (Ham F-12 with L-Glutamine) containing 300 μg/ml G418, 100 U/ml penicillin, 100 μg/ml streptomycin and 10% heat inactivated fetal calf serum (FCS). The cells are seeded at 20,000 cells/well into 384-well black clear bottom sterile plates (Greiner). The seeded plates are incubated overnight at 37° C. in 5% CO2.
(§4) Human orexin-A as an agonist is prepared as 1 mM stock solution in MeOH:water (1:1), diluted in HBSS containing 0.1% bovine serum albumin (BSA), NaHCO3: 0.375 g/l and 20 mM HEPES for use in the assay at a final concentration of 3 nM.
(§5) Antagonists are prepared as 10 mM stock solution in DMSO, then diluted in 384-well plates using DMSO followed by a transfer of the dilutions into in HBSS containing 0.1% bovine serum albumin (BSA), NaHCO3: 0.375 g/l and 20 mM HEPES. On the day of the assay, 50 μl of staining buffer (HBSS containing 1% FCS, 20 mM HEPES, NaHCO3: 0.375 g/l, 5 mM probenecid (Sigma) and 3 μM of the fluorescent calcium indicator fluo-4 AM (1 mM stock solution in DMSO, containing 10% pluronic) is added to each well. The 384-well cell-plates are incubated for 50 min at 37° C. in 5% CO2 followed by equilibration at rt for 30-120 min before measurement.
(§6) Within the Fluorescent Imaging Plate Reader (FLIPR2 or FLIPR Tetra, Molecular Devices), antagonists are added to the plate in a volume of […], incubated for 10 min and finally 10 μl/well of agonist is added. Fluorescence is measured for each well at 1 second intervals, and the height of each fluorescence peak is compared to the height of the fluorescence peak induced by 3 nM orexin-A with vehicle in place of antagonist. For each antagonist, the IC50 value (the concentration of compound needed to inhibit 50% of the agonistic response) is determined. With the FLIPR Tetra, non-optimized and optimized conditions were used. Optimized conditions were achieved by adjustment of pipetting speed and cell splitting regime. The calculated IC50 values of the compounds may fluctuate depending on the daily cellular assay performance. Fluctuations of this kind are known to those skilled in the art.
A general note: Calcium flux is commonly read through the fluorescence of an indicator in the cells.

The next test has as its target T2, human orexin-2 receptor (Homo sapiens, UniProt O43614).
T2 construct: expressed in transfected cells; host or cells: CHO cells (G418 selection)
T2 sequence (O43614 1-444): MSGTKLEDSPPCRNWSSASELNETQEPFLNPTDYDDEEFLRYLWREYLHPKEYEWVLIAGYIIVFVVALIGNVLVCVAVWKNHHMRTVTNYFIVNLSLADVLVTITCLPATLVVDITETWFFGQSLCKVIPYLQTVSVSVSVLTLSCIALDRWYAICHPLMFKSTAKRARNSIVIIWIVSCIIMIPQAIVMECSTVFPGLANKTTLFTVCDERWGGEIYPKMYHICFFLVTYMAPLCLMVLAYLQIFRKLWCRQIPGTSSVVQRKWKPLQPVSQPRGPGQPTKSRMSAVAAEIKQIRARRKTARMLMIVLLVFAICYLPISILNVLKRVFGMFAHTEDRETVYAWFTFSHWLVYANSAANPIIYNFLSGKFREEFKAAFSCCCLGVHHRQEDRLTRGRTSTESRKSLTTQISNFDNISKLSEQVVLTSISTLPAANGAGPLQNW
The test can be described thus: Intracellular calcium measurements (FLIPR), orexin receptor antagonistic activity, OX2. In kind it is cell-based. The note with it: CHO cells expressing human orexin-2 receptor, 3 nM orexin-A. The method, then:
as §1, §2, §3, §4, §5, §6

Where [1] appears, read: FLIPR Tetra, non-optimized conditions.
The mark [2] stands for this setting: FLIPR Tetra, optimized conditions.

In the case of `COc1cccc(-c2sc(C)nc2C(=O)N2C[C@@H]3CCC[C@@H]3[C@H]2CNC(=O)c2c(C)nc3sccn23)c1` [Example 33, 6-Methyl-imidazo[2,1-b]thiazole-5-carboxylic acid-(1S,2S,5R)-{3-[5-(3-methoxy-phenyl)-2-methyl-thiazole-4-carbonyl]-3-aza-bicyclo[3.3.0]oct-2-ylmethyl}-amide], the IC50 is 8 nM on human orexin-1 receptor (setting [1]) and 17 nM on human orexin-2 receptor (setting [1]).
Regarding `Cc1cccc(-c2sc(C)nc2C(=O)N2C[C@@H]3CC(F)(F)C[C@@H]3[C@H]2CNC(=O)c2c(C)nc3sccn23)c1` [Example 85, 6-Methyl-imidazo[2,1-b]-thiazole-5-carboxylic acid-(1S,2S,5R)-[7,7-difluoro-3-(2-methyl-5-m-tolyl-thiazole-4-carbonyl)-3-aza-bicyclo[3.3.0]oct-2-ylmethyl]-amide], the IC50 at human orexin-1 receptor (setting [2]) amounted to 7 nM; at human orexin-2 receptor (setting [2]) it was 18 nM.
Taken in the same sequence, the figures for `Cc1cccc(-c2sc(C)nc2C(=O)N2C[C@@H]3CC(F)(F)C[C@@H]3[C@H]2CNC(=O)c2cccc3c2CCO3)c1` [Example 79, 2,3-Dihydro-benzofuran-4-carboxylic acid-(1S,2S,5R)-[7,7-difluoro-3-(2-methyl-5-m-tolyl-thiazole-4-carbonyl)-3-aza-bicyclo[3.3.0]oct-2-ylmethyl]-amide] were 8 nM and 20 nM.
For `Cc1nc2sccn2c1C(=O)NC[C@@H]1[C@H]2CCC[C@H]2CN1C(=O)c1nc(N)sc1-c1cccc(F)c1` [Example 70, 6-Methyl-imidazo[2,1-b]thiazole-5-carboxylic acid-(1S,2S,5R)-{3-[2-amino-5-(3-fluoro-phenyl)-thiazole-4-carbonyl]-3-aza-bicyclo[3.3.0]oct-2-ylmethyl}-amide], the IC50 is 17 nM at human orexin-1 receptor (setting [1]) and 20 nM at human orexin-2 receptor (setting [1]).
The like results for `Cc1nc(C(=O)N2C[C@@H]3CC(C)C[C@@H]3[C@H]2CNC(=O)c2c(C)nc3sccn23)c(-c2cccc(C(F)(F)F)c2)s1` (stereo partly drawn) [Example 36, 6-Methyl-imidazo[2,1-b]thiazole-5-carboxylic acid-(1S,2S,5R)-{7-methyl-3-[2-methyl-5-(3-trifluoromethyl-phenyl)-thiazole-4-carbonyl]-3-aza-bicyclo[3.3.0]oct-2-ylmethyl}-amide] were, in that order, 44 nM and 262 nM.
As to `Cc1cccc(-c2sc(C)nc2C(=O)N2C[C@@H]3CC(C)C[C@@H]3[C@H]2CNC(=O)c2noc3ccccc23)c1` (stereo partly drawn) [Example 7, Benzo[d]isoxazole-3-carboxylic acid-(1S,2S,5R)-[7-methyl-3-(2-methyl-5-m-tolyl-thiazole-4-carbonyl)-3-aza-bicyclo[3.3.0]oct-2-ylmethyl]-amide], the IC50 on human orexin-1 receptor (FLIPR2) turned out to be 12 nM; on human orexin-2 receptor (FLIPR2) it was 13 nM.
The like results for `Cc1cccc(-c2sc(C)nc2C(=O)N2C[C@@H]3CC(C)C[C@@H]3[C@H]2CNC(=O)c2c(C)noc2C)c1` (stereo partly drawn) [Example 6, 3,5-Dimethyl-isoxazole-4-carboxylic acid-(1S,2S,5R)-[7-methyl-3-(2-methyl-5-m-tolyl-thiazole-4-carbonyl)-3-aza-bicyclo[3.3.0]-2-ylmethyl]-amide] were, in that order, 59 nM and 114 nM.
Taken in the same sequence, the figures for `Cc1cccc(C(=O)NC[C@@H]2[C@H]3CC(C)C[C@H]3CN2C(=O)c2nc(C)sc2-c2cccc(C)c2)c1` (stereo partly drawn) [Example 19, (1S,2S,5R)-3-Methyl-N-[7-methyl-3-(2-methyl-5-m-tolyl-thiazole-4-carbonyl)-3-aza-bicyclo[3.3.0]oct-2-ylmethyl]-benzamide] were 77 nM and 47 nM.
Consider `Cc1cccc(-c2sc(C)nc2C(=O)N2C[C@@H]3CC(C)C[C@@H]3[C@H]2CNC(=O)c2cnc3sccn23)c1` (stereo partly drawn) [Example 11, Imidazo[2,1-b]thiazole-5-carboxylic acid-(1S,2S,5R)-[7-methyl-3-(2-methyl-5-m-tolyl-thiazole-4-carbonyl)-3-aza-bicyclo[3.3.0]oct-2-ylmethyl]-amide], for which the IC50 on human orexin-1 receptor (FLIPR2) amounted to 7 nM; at human orexin-2 receptor (FLIPR2), 9 nM.
Take `Cc1nc(C(=O)N2C[C@@H]3CC(C)C[C@@H]3[C@H]2CNC(=O)c2c(C)nc3sccn23)c(-c2ccc(F)c(F)c2)s1` (stereo partly drawn) [Example 51, 6-Methyl-imidazo[2,1-b]thiazole-5-carboxylic acid-(1S,2S,5R)-{3-[5-(3,4-difluoro-phenyl)-2-methyl-thiazole-4-carbonyl]-7-methyl-3-aza-bicyclo[3.3.0]oct-2-ylmethyl}-amide]: the values for the half-inhibitory concentration (IC50) at human orexin-1 receptor (setting [1]) and on human orexin-2 receptor (setting [1]) were 33 nM and 94 nM, respectively.
The like results for `Cc1nc2sccn2c1C(=O)NC[C@@H]1[C@H]2CCC[C@H]2CN1C(=O)c1ccccc1-c1ccccc1` [Example 60, 6-Methyl-imidazo[2,1-b]thiazole-5-carboxylic acid-(1S,2S,5R)-[3-(biphenyl-2-carbonyl)-3-aza-bicyclo[3.3.0]oct-2-ylmethyl]-amide] were, in that order, 16 nM and 21 nM.
`Cc1cccc(-c2sc(C)nc2C(=O)N2C[C@@H]3CC(F)(F)C[C@@H]3[C@H]2CNC(=O)c2cccc3ncsc23)c1` [Example 81, Benzothiazole-7-carboxylic acid-(1S,2S,5R)-[7,7-difluoro-3-(2-methyl-5-m-tolyl-thiazole-4-carbonyl)-3-aza-bicyclo[3.3.0]oct-2-ylmethyl]-amide]: the IC50 on human orexin-1 receptor (setting [2]) amounted to 6 nM; on human orexin-2 receptor (setting [2]), 10 nM.
Turning to `Cc1cccc(-c2sc(C)nc2C(=O)N2C[C@@H]3CC(C)C[C@@H]3[C@H]2CNC(=O)c2cc(Cl)ccn2)c1` (stereo partly drawn) [Example 25, 4-Chloro-pyridine-2-carboxylic acid-(1S,2S,5R)-[7-methyl-3-(2-methyl-5-m-tolyl-thiazole-4-carbonyl)-3-aza-bicyclo[3.3.0]oct-2-ylmethyl]-amide], the half-inhibitory concentration (IC50) turned out to be 24 nM at human orexin-1 receptor (FLIPR2) and 48 nM at human orexin-2 receptor (FLIPR2).
